Assay results reported in ChEMBL document CHEMBL3885861, “Open TG-GATES”.

Species: Rattus norvegicus
Assay: Open TG-GATES - Regimen: Daily Repeat
Type: toxicity, organism-based, Sprague-Dawley
Parameters: regimen Daily Repeat, gender Male, age 6 weeks
Conditions: in vivo, po, 100 mg/kg, route gavage, dose level Low; for APTT / Bas / Eos / Fbg / Hb / Ht / Lym / MCH / MCHC / MCV / Mono / Neu / PT / Plat / RBC / Ret / WBC: tissue Blood; for KIDNEY_L / KIDNEY_R / KIDNEY_TOTAL: tissue Kidney; for LIVER: tissue Liver; for A/G / ALP / ALT / AST / BUN / CRE / Ca / Cl / DBIL / GLC / IP / K / LDH / Na / PL / RALB / TBIL / TC / TG / TP / gamma-GTP: tissue Plasma

For `C[C@H]1O[C@H](O[C@H]2[C@H](O)[C@@H](O)[C@@H](O[C@H]3[C@H](O)[C@@H](O)C(O)O[C@@H]3CO)O[C@@H]2CO)[C@H](O)[C@@H](O)[C@@H]1N[C@H]1C=C(CO)[C@@H](O)[C@H](O)[C@H]1O` (some centres not stated) [ACARBOSE], the TERMINAL_BW (72 h, time 3 day) was 233.2 g, the APTT (72 h, time 3 day) was 17.1 s and the Bas (72 h, time 3 day) was 0%. It also gave an Eos (72 h, time 3 day) of 1%, a Fbg (72 h, time 3 day) of 279.2 mg/dL and a Hb (72 h, time 3 day) of 13.2 g/dL. For the same molecule, the Ht (72 h, time 3 day) was 39.4%, the Lym (72 h, time 3 day) was 79.4% and the MCH (72 h, time 3 day) was 20.4 pg. For the same molecule, the MCHC (72 h, time 3 day) was 33.5%, the MCV (72 h, time 3 day) was 61 fL and the Mono (72 h, time 3 day) was 2.6%. It also gave a Neu (72 h, time 3 day) of 15.4%, a PT (72 h, time 3 day) of 13.3 s and a Plat (72 h, time 3 day) of 126 x10_4/uL. It also gave an RBC (72 h, time 3 day) of 646.8 x10_4/ul, a Ret (72 h, time 3 day) of 6.7% and a WBC (72 h, time 3 day) of 97.6 x10_2/uL. It also gave a KIDNEY_L (72 h, time 3 day) of 1 g, a KIDNEY_R (72 h, time 3 day) of 1 g and a KIDNEY_TOTAL (72 h, time 3 day) of 2.1 g. The LIVER (72 h, time 3 day) was 11.3 g, the A/G (72 h, time 3 day) was 0.9 and the ALP (72 h, time 3 day) was 1544.2 IU/L. It also gave an ALT (72 h, time 3 day) of 40.2 IU/L, an AST (72 h, time 3 day) of 70.2 IU/L and a BUN (72 h, time 3 day) of 13.8 mg/dL. For the same molecule, the CRE (72 h, time 3 day) was 0.2 mg/dL, the Ca (72 h, time 3 day) was 10.7 mg/dL and the Cl (72 h, time 3 day) was 103.8 meq/L. For the same molecule, the DBIL (72 h, time 3 day) was 0.01 mg/dL, the GLC (72 h, time 3 day) was 182 mg/dL and the IP (72 h, time 3 day) was 7.5 mg/dL. For the same molecule, the K (72 h, time 3 day) was 3.9 meq/L, the LDH (72 h, time 3 day) was 84.2 IU/L and the Na (72 h, time 3 day) was 140.6 meq/L. For the same molecule, the PL (72 h, time 3 day) was 142.4 mg/dL, the RALB (72 h, time 3 day) was 2.6 g/dL and the TBIL (72 h, time 3 day) was 0.056 mg/dL. It also gave a TC (72 h, time 3 day) of 72.2 mg/dL, a TG (72 h, time 3 day) of 101.8 mg/dL and a TP (72 h, time 3 day) of 5.6 g/dL. For the same molecule, the gamma-GTP (72 h, time 3 day) was 1 IU/L, the TERMINAL_BW ([…], time 7 day) was 267.4 g and the TERMINAL_BW ([…], time 14 day) was 335.4 g. For the same molecule, the TERMINAL_BW ([…], time 28 day) was 407.8 g, the APTT ([…], time 7 day) was 17.6 s and the Bas ([…], time 7 day) was 0%. It also gave an Eos ([…], time 7 day) of 1%, a Fbg ([…], time 7 day) of 291.8 mg/dL and a Hb ([…], time 7 day) of 13.8 g/dL. It also gave a Ht ([…], time 7 day) of 40.9%, a Lym ([…], time 7 day) of 73.6% and an MCH ([…], time 7 day) of 21.2 pg. The MCHC ([…], time 7 day) was 33.6%, the MCV ([…], time 7 day) was 63 fL and the Mono ([…], time 7 day) was 3%. For the same molecule, the Neu ([…], time 7 day) was 21.6%, the PT ([…], time 7 day) was 12.9 s and the Plat ([…], time 7 day) was 130.6 x10_4/uL. For the same molecule, the RBC ([…], time 7 day) was 649.8 x10_4/ul, the Ret ([…], time 7 day) was 6.1% and the WBC ([…], time 7 day) was 81.1 x10_2/uL. The APTT ([…], time 14 day) was 17.6 s, the Bas ([…], time 14 day) was 0% and the Eos ([…], time 14 day) was 1.4%. It also gave a Fbg ([…], time 14 day) of 290.2 mg/dL, a Hb ([…], time 14 day) of 14.9 g/dL and a Ht ([…], time 14 day) of 44.1%. The Lym ([…], time 14 day) was 80.6%, the MCH ([…], time 14 day) was 20.7 pg and the MCHC ([…], time 14 day) was 33.7%. For the same molecule, the MCV ([…], time 14 day) was 61.4 fL, the Mono ([…], time 14 day) was 2.6% and the Neu ([…], time 14 day) was 15%. The PT ([…], time 14 day) was 13.2 s, the Plat ([…], time 14 day) was 126.6 x10_4/uL and the RBC ([…], time 14 day) was 719.2 x10_4/ul. The Ret ([…], time 14 day) was 4.4%, the WBC ([…], time 14 day) was 98.7 x10_2/uL and the APTT ([…], time 28 day) was 18.7 s. For the same molecule, the Bas ([…], time 28 day) was 0%, the Eos ([…], time 28 day) was 1% and the Fbg ([…], time 28 day) was 301 mg/dL. The Hb ([…], time 28 day) was 15.3 g/dL, the Ht ([…], time 28 day) was 44% and the Lym ([…], time 28 day) was 78.8%. For the same molecule, the MCH ([…], time 28 day) was 19.6 pg, the MCHC ([…], time 28 day) was 34.7% and the MCV ([…], time 28 day) was 56.4 fL. It also gave a Mono ([…], time 28 day) of 1.4%, a Neu ([…], time 28 day) of 17.4% and a PT ([…], time 28 day) of 13.3 s. For the same molecule, the Plat ([…], time 28 day) was 103.6 x10_4/uL, the RBC ([…], time 28 day) was 780.8 x10_4/ul and the Ret ([…], time 28 day) was 2.4%. It also gave a WBC ([…], time 28 day) of 101.5 x10_2/uL, a KIDNEY_L ([…], time 7 day) of 1.1 g and a KIDNEY_R ([…], time 7 day) of 1.1 g. The KIDNEY_TOTAL ([…], time 7 day) was 2.2 g, the KIDNEY_L ([…], time 14 day) was 1.3 g and the KIDNEY_R ([…], time 14 day) was 1.3 g. It also gave a KIDNEY_TOTAL ([…], time 14 day) of 2.6 g, a KIDNEY_L ([…], time 28 day) of 1.5 g and a KIDNEY_R ([…], time 28 day) of 1.4 g. It also gave a KIDNEY_TOTAL ([…], time 28 day) of 2.9 g, an LIVER ([…], time 7 day) of 12.2 g and an LIVER ([…], time 14 day) of 15.3 g. It also gave an LIVER ([…], time 28 day) of 16.8 g, an A/G ([…], time 7 day) of 0.9 and an ALP ([…], time 7 day) of 1544.4 IU/L. The ALT ([…], time 7 day) was 44 IU/L, the AST ([…], time 7 day) was 73.2 IU/L and the BUN ([…], time 7 day) was 15.8 mg/dL. The CRE ([…], time 7 day) was 0.2 mg/dL, the Ca ([…], time 7 day) was 10.9 mg/dL and the Cl ([…], time 7 day) was 104.2 meq/L. For the same molecule, the DBIL ([…], time 7 day) was 0.008 mg/dL, the GLC ([…], time 7 day) was 176.4 mg/dL and the IP ([…], time 7 day) was 7.4 mg/dL. The K ([…], time 7 day) was 3.8 meq/L, the LDH ([…], time 7 day) was 76.8 IU/L and the Na ([…], time 7 day) was 141.8 meq/L. The PL ([…], time 7 day) was 148.4 mg/dL, the RALB ([…], time 7 day) was 2.6 g/dL and the TBIL ([…], time 7 day) was 0.052 mg/dL. For the same molecule, the TC ([…], time 7 day) was 74.6 mg/dL, the TG ([…], time 7 day) was 103.6 mg/dL and the TP ([…], time 7 day) was 5.7 g/dL. For the same molecule, the gamma-GTP ([…], time 7 day) was 0.8 IU/L, the A/G ([…], time 14 day) was 0.8 and the ALP ([…], time 14 day) was 1438.4 IU/L. For the same molecule, the ALT ([…], time 14 day) was 36.2 IU/L, the AST ([…], time 14 day) was 62.8 IU/L and the BUN ([…], time 14 day) was 16 mg/dL. For the same molecule, the CRE ([…], time 14 day) was 0.2 mg/dL, the Ca ([…], time 14 day) was 10.9 mg/dL and the Cl ([…], time 14 day) was 104.2 meq/L. The DBIL ([…], time 14 day) was 0.01 mg/dL, the GLC ([…], time 14 day) was 182 mg/dL and the IP ([…], time 14 day) was 6.7 mg/dL. It also gave a K ([…], time 14 day) of 4.2 meq/L, an LDH ([…], time 14 day) of 119.4 IU/L and a Na ([…], time 14 day) of 141.8 meq/L. The PL ([…], time 14 day) was 153.4 mg/dL, the RALB ([…], time 14 day) was 2.7 g/dL and the TBIL ([…], time 14 day) was 0.052 mg/dL. It also gave a TC ([…], time 14 day) of 75.4 mg/dL, a TG ([…], time 14 day) of 146.8 mg/dL and a TP ([…], time 14 day) of 6 g/dL. It also gave a gamma-GTP ([…], time 14 day) of 1 IU/L, an A/G ([…], time 28 day) of 0.8 and an ALP ([…], time 28 day) of 1221 IU/L. For the same molecule, the ALT ([…], time 28 day) was 36.8 IU/L, the AST ([…], time 28 day) was 66.2 IU/L and the BUN ([…], time 28 day) was 17 mg/dL. The CRE ([…], time 28 day) was 0.2 mg/dL, the Ca ([…], time 28 day) was 10.8 mg/dL and the Cl ([…], time 28 day) was 104.8 meq/L. For the same molecule, the DBIL ([…], time 28 day) was 0.018 mg/dL, the GLC ([…], time 28 day) was 179.8 mg/dL and the IP ([…], time 28 day) was 6.4 mg/dL. The K ([…], time 28 day) was 4.1 meq/L, the LDH ([…], time 28 day) was 79.6 IU/L and the Na ([…], time 28 day) was 142.4 meq/L. It also gave a PL ([…], time 28 day) of 149.2 mg/dL, an RALB ([…], time 28 day) of 2.8 g/dL and a TBIL ([…], time 28 day) of 0.056 mg/dL. It also gave a TC ([…], time 28 day) of 70 mg/dL, a TG ([…], time 28 day) of 156 mg/dL and a TP ([…], time 28 day) of 6.2 g/dL. It also gave a gamma-GTP ([…], time 28 day) of 1 IU/L.
